Experiments:
Format in all cases: cell-based
[1] = molecular target: P2Y1 (Homo sapiens, UniProt P47900); assay: Calcium mobilization assay, P2Y1; parameters: key: no response (NR); conditions: activation of P2Y1 receptor;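 note: test compound added first then a maximal dose of the cognate agonist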
[2] = molecular target: P2Y2 (Homo sapiens, UniProt P41231); assay: Calcium mobilization assay, P2Y2; parameters: key: no response (NR); conditions: activation of P2Y2 receptor;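 note: test compound added first then a maximal dose of the cognate agonist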
P2Y2, sequence (P41231 whole entry, species assumed): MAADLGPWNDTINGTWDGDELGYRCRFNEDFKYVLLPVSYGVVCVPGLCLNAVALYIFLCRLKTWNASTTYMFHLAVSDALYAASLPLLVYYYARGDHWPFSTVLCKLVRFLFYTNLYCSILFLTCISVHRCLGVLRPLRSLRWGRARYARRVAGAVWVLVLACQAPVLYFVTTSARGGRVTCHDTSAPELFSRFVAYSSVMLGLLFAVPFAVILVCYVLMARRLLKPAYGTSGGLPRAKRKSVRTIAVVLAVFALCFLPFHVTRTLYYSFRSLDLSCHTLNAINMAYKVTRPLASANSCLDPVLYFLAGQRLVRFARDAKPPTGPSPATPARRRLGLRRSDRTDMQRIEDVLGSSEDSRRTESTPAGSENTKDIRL

[3] = molecular target: P2Y6 (Homo sapiens, UniProt Q15077); assay: Calcium mobilization assay, P2Y6; parameters: key: no response (NR); conditions: activation of P2Y6 receptor;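 note: test compound added first then a maximal dose of the cognate agonist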
P2Y6, sequence (Q15077 whole entry, species assumed): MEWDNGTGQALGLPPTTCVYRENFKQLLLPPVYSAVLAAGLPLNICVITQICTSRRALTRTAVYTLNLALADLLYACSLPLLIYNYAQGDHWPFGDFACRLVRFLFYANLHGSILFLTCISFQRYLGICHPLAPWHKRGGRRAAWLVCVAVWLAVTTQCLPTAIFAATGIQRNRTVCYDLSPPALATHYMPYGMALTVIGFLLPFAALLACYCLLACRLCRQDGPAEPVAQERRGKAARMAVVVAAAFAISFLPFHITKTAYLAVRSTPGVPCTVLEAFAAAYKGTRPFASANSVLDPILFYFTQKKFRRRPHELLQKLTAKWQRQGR

[4] = molecular target: P2Y4 (Homo sapiens, UniProt P51582); assay: Calcium mobilization assay, P2Y4; parameters: key: no response (NR); conditions: activation of P2Y4 receptor;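 note: test compound added first then a maximal dose of the cognate agonist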
P2Y4, sequence (P51582 whole entry, species assumed): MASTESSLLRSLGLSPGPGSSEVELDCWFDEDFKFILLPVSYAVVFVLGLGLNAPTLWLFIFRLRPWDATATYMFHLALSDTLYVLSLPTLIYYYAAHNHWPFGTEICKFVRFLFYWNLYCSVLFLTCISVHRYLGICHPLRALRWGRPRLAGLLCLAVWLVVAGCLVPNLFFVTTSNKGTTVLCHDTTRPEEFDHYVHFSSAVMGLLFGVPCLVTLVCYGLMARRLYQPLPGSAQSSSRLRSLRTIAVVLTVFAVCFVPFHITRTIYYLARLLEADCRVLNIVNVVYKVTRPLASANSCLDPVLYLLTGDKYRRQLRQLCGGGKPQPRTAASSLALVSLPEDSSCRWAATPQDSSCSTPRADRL

[5] = system: washed platelet (ADP-induced aggregation; P2Y12 receptor); assay: ADP-induced platelet aggregation, washed platelet preparation; conditions: Homo sapiens, inhibition of ADP-induced aggregation, washed platelets, average of at least two separate experiments
Method: Blood was collected from healthy volunteers into syringes containing ⅙ final blood volume of anti-coagulant ACD (65 mM citric acid, 85 mM sodium citrate, 110 mM dextrose) for washed platelet (WP) preparation or into a syringe containing a final concentration of 10 units/mL heparin or 300 μM PPACK for whole blood (WB) assays. The blood collected for whole blood assays was maintained at room temperature and immediately tested as described below. […] These centrifugations and washes were repeated twice following by resuspension in the media described above containing 0.25 U apyrase/mL. Platelet aggregation was measured using the optical mode of a CHRONOLOG® aggregometer (Havertown, Pa.). Five hundred μl of platelet suspension containing 1 mg/mL Fibrinogen were warmed to 37° C. and stirred at 1000 rpm. Indicated concentrations of ADP were added to the sample and aggregation was monitored for 8 minutes. […] For whole blood aggregation, blood was diluted 1:1 with saline and then aggregation was performed in the same manner as described above using the impedance mode of the aggregometer. The potency of agonists and inhibitors of platelet aggregation was calculated from both, the rate of aggregation and the maximal extent of aggregation obtained for each determination by fitting the data to a four-parameter logistic equation using the […]® software package (GraphPad Corp. San Diego, Calif.).
The ability of P2Y12 antagonists to inhibit platelet aggregation is presented in this application as the percent inhibition of the aggregation induced by a maximally effective concentration of ADP.
Data presented are from the average of at least two separate experiments.

P2Y1, sequence (P47900 whole entry): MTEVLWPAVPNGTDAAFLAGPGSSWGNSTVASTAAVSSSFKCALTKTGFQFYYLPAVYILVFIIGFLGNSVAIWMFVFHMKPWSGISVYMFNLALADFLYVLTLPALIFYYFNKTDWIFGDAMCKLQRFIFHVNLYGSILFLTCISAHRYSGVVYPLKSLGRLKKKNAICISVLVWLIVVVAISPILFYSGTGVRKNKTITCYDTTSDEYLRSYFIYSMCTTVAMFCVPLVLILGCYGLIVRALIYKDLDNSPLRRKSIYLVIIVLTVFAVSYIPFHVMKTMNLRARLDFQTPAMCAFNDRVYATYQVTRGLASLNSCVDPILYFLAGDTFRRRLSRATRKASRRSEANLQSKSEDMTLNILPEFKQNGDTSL

O=C(Nc1ccccc1)Nc1ncnc2c1ncn2[C@@H]1O[C@H](COP(=O)(O)O)C2OC(Cc3ccccc3)O[C@@H]21 (stereo partly shown) [Compound 22, 2′,3′-phenylacetaldehyde acetal-6-N-phenylurea adenosine 5′-monophosphate]
Calcium Mobilization P2Y1 [1]: NR | Calcium Mobilization P2Y2 [2]: NR | Calcium Mobilization P2Y6 [3]: NR | Calcium Mobilization P2Y4 [4]: NR | IC50 [5]: 160 ± 27 nM

CCCCCCNC(=O)Nc1ncnc2c1ncn2[C@@H]1O[C@H](COP(=O)(O)O)C2OC(Cc3ccccc3)O[C@@H]21 (stereo partly shown) [Compound 23, 2′,3′-phenylacetaldehyde acetal-6-N-n-hexylurea AMP]
Calcium Mobilization P2Y1 [1]: NR | Calcium Mobilization P2Y2 [2]: NR | Calcium Mobilization P2Y6 [3]: NR | Calcium Mobilization P2Y4 [4]: NR | IC50 [5]: 53 ± 16 nM

CCNC(=O)Nc1ncnc2c1ncn2[C@@H]1O[C@H](COP(=O)(O)O)C2OC(Cc3ccccc3)O[C@@H]21 (stereo partly shown) [Compound 24, 2′,3′-phenylacetaldehyde acetal-6-N-ethylurea AMP]
Calcium Mobilization P2Y1 [1]: NR | Calcium Mobilization P2Y2 [2]: NR | Calcium Mobilization P2Y6 [3]: NR | Calcium Mobilization P2Y4 [4]: NR | IC50 [5]: 41 ± 7 nM

O=C(Nc1ncnc2c1ncn2[C@@H]1O[C@H](COP(=O)(O)O)C2OC(Cc3ccccc3)O[C@@H]21)NC1CCCC1 (stereo partly shown) [Compound 25, 2′,3′-phenylacetaldehyde acetal-6-N-cyclopentylurea AMP]
Calcium Mobilization P2Y1 [1]: NR | Calcium Mobilization P2Y2 [2]: NR | Calcium Mobilization P2Y6 [3]: NR | Calcium Mobilization P2Y4 [4]: NR | IC50 [5]: 36 ± 9 nM

CCCCCCNC(=O)Nc1ncnc2c1ncn2[C@@H]1O[C@H](COP(=O)(O)O)C2OC(/C=C/c3ccccc3)O[C@@H]21 (stereo partly shown) [Compound 26, 2′,3′-cinnamyl acetal-6-N-n-hexylurea AMP]
Calcium Mobilization P2Y1 [1]: NR | Calcium Mobilization P2Y2 [2]: NR | Calcium Mobilization P2Y6 [3]: NR | Calcium Mobilization P2Y4 [4]: NR | IC50 [5]: 36 ± 9 nM

CCNC(=O)Nc1ncnc2c1ncn2[C@@H]1O[C@H](COP(=O)(O)O)C2OC(/C=C/c3ccccc3)O[C@@H]21 (stereo partly shown) [Compound 27, 2′,3′-cinnamyl acetal-6-N-ethylurea adenosine 5′-monophosphate]
Calcium Mobilization P2Y1 [1]: NR | Calcium Mobilization P2Y2 [2]: NR | Calcium Mobilization P2Y6 [3]: NR | Calcium Mobilization P2Y4 [4]: NR | IC50 [5]: 9 ± 3 nM

O=C(Nc1ccccc1)Nc1ncnc2c1ncn2[C@@H]1O[C@H](COP(=O)(O)O)C2OC(/C=C/c3ccccc3)O[C@@H]21 (stereo partly shown) [Compound 28, 2′,3′-cinnamyl acetal-6-N-phenylurea AMP]
Calcium Mobilization P2Y1 [1]: NR | Calcium Mobilization P2Y2 [2]: NR | Calcium Mobilization P2Y6 [3]: NR | Calcium Mobilization P2Y4 [4]: NR | IC50 [5]: 209 nM

O=C(Nc1ccccc1)Nc1ncnc2c1ncn2[C@@H]1O[C@H](COP(=O)(O)O)C2OC(C#Cc3ccccc3)O[C@@H]21 (stereo partly shown) [Compound 31, 2′,3′-phenylpropargyl acetal-6-N-phenylurea AMP]
Calcium Mobilization P2Y1 [1]: NR | Calcium Mobilization P2Y2 [2]: NR | Calcium Mobilization P2Y6 [3]: NR | Calcium Mobilization P2Y4 [4]: NR | IC50 [5]: 230 nM

CCCCCCNC(=O)Nc1ncnc2c1ncn2[C@@H]1O[C@H](COP(=O)(O)O)C2OC(C#Cc3ccccc3)O[C@@H]21 (stereo partly shown) [Compound 32, 2′,3′-phenylpropargyl acetal-6-N-n-hexylurea AMP]
Calcium Mobilization P2Y1 [1]: NR | Calcium Mobilization P2Y2 [2]: NR | Calcium Mobilization P2Y6 [3]: NR | Calcium Mobilization P2Y4 [4]: NR | IC50 [5]: 210 nM

CCCCNC(=O)Nc1ncnc2c1ncn2[C@@H]1O[C@H](COP(=O)(O)O)C2OC(C#Cc3ccccc3)O[C@@H]21 (stereo partly shown) [Compound 33, 2′,3′-phenylpropargyl acetal-6-N-n-butylurea AMP]
Calcium Mobilization P2Y1 [1]: NR | Calcium Mobilization P2Y2 [2]: NR | Calcium Mobilization P2Y6 [3]: NR | Calcium Mobilization P2Y4 [4]: NR | IC50 [5]: 67 nM

CCNC(=O)Nc1ncnc2c1ncn2[C@@H]1O[C@H](COP(=O)(O)O)C2OC(C#Cc3ccccc3)O[C@@H]21 (stereo partly shown) [Compound 35, 2′,3′-phenylpropargyl acetal-6-N-ethylurea AMP]
Calcium Mobilization P2Y1 [1]: NR | Calcium Mobilization P2Y2 [2]: NR | Calcium Mobilization P2Y6 [3]: NR | Calcium Mobilization P2Y4 [4]: NR | IC50 [5]: 25 nM

CCNC(=O)Nc1ncnc2c1ncn2[C@@H]1O[C@H](COP(=O)(O)O)C2OC(c3ccccc3)O[C@@H]21 (stereo partly shown) [Compound 36, 2′,3′-benzaldehyde acetal-6-N-ethylurea AMP]
Calcium Mobilization P2Y1 [1]: NR | Calcium Mobilization P2Y2 [2]: NR | Calcium Mobilization P2Y6 [3]: NR | Calcium Mobilization P2Y4 [4]: NR | IC50 [5]: 13 ± 3 nM

CCNC(=O)Nc1ncnc2c1ncn2[C@@H]1O[C@H](COP(=O)(O)O)C2O[C@H](c3ccccc3)O[C@@H]21 (stereo partly drawn) [Compound 42, 2′3′-(trans)phenyl acetal-6-N-ethylurea AMP]
Calcium Mobilization P2Y1 [1]: NR | Calcium Mobilization P2Y2 [2]: NR | Calcium Mobilization P2Y6 [3]: NR | Calcium Mobilization P2Y4 [4]: NR | IC50 [5]: 12 nM

CCNC(=O)Nc1ncnc2c1ncn2[C@@H]1O[C@H](COP(=O)(O)O)C2O[C@@H](c3ccccc3)O[C@@H]21 (stereo partly drawn) [Compound 43, 2′3′-(cis)phenyl acetal-6-N-ethylurea AMP]
Calcium Mobilization P2Y1 [1]: NR | Calcium Mobilization P2Y2 [2]: NR | Calcium Mobilization P2Y6 [3]: NR | Calcium Mobilization P2Y4 [4]: NR | IC50 [5]: 11 nM

CCNC(=O)Nc1ncnc2c1ncn2[C@@H]1O[C@H](COP(=O)(O)OP(=O)(O)OC[C@H]2O[C@@H](n3cnc4c(NC(=O)NCC)ncnc43)[C@H]3OC(C#Cc4ccccc4)OC23)C2OC(C#Cc3ccccc3)OC21 (stereo partly shown) [Compound 45, P^1, p2′-di-(2′,3′-phenylpropargylacetal-6-N-ethylureaadenosine 5′-) diphosphate]
Calcium Mobilization P2Y1 [1]: NR | Calcium Mobilization P2Y2 [2]: NR | Calcium Mobilization P2Y6 [3]: NR | Calcium Mobilization P2Y4 [4]: NR | IC50 [5]: 10 nM

CCNC(=O)Nc1ncnc2c1ncn2[C@@H]1O[C@H](COP(=O)(O)OP(=O)(O)OC[C@H]2O[C@@H](n3cnc4c(NC(=O)NCC)ncnc43)[C@H]3OC(Cc4ccccc4)OC23)C2OC(Cc3ccccc3)OC21 (stereo partly shown) [Compound 46, P^1, P^1-di-(2′,3′-phenylacetaldehydeacetal-6-N-ethylureaadenosine 5′-) diphosphate]
Calcium Mobilization P2Y1 [1]: NR | Calcium Mobilization P2Y2 [2]: NR | Calcium Mobilization P2Y6 [3]: NR | Calcium Mobilization P2Y4 [4]: NR | IC50 [5]: 53 nM

CCNC(=O)Nc1ncnc2c1ncn2[C@@H]1O[C@H](COP(=O)(O)OP(=O)(O)OC[C@H]2O[C@@H](n3cnc4c(NC(=O)NCC)ncnc43)[C@H]3OC(c4ccccc4)OC23)C2OC(c3ccccc3)OC21 (stereo partly shown) [Compound 47, P^1, P^4-Di-(2′,3′-phenylacetal-6-N-ethylureaadenosine 5′-) diphosphate]
Calcium Mobilization P2Y1 [1]: NR | Calcium Mobilization P2Y2 [2]: NR | Calcium Mobilization P2Y6 [3]: NR | Calcium Mobilization P2Y4 [4]: NR | IC50 [5]: 55 nM

From patent US7452870B2, “Drug-eluting stents coated with P2Y12 receptor antagonist compound” (Inspire Pharmaceuticals, Inc., priority 2000, dated 2008)
